The record followed here is patent US20250186437A1, “CARBOLINE COMPOUNDS AND USE THEREOF” (PTC Therapeutics, Inc., priority 2021, published 2025).

In this test the test system is MOLM-13 cells. Nature of the test: MOLM-13 Cell Proliferation Assay (indicator of DHODH inhibition). It is filed as cell-based. The conditions noted are these: Homo sapiens, 72 Hours of culture, CellTiter-Glo, no uridine. The method in brief:
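Low-passage MOLM-13 cells (10^4/well) in RPMI 1640 + 10% FBS exposed to compound (0.5% DMSO final) for 72 h at 37 °C, 5% CO2. Viability read by CellTiter-Glo luminescence; growth reflects de novo pyrimidine synthesis dependent on DHODH.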

One may read the IC50 as the concentration that gives 50% inhibition. Higher therefore signals weaker potency. In the case of `FC(F)(F)c1ccnc(N2CCc3c([nH]c4ccc(Cl)cc34)C2c2ccc(-n3cccn3)cc2)n1` (stereo not drawn) [Compound 261, 6-chloro-1-[4-(1H-pyrazol-1-yl)phenyl]-2-[4-(trifluoromethyl)pyrimidin-2-yl]-2,3,4,9-tetrahydro-1H-pyrido[3,4-b]indole], the midpoint of inhibition, the IC50, lay at 1.2 nM.

In turn, `Cc1nc(C)nc(N2CCc3c([nH]c4c(N)cc(Cl)cc34)C2c2ccc(C)c(F)c2F)n1` (stereo not drawn) [Compound 304, 6-chloro-1-(2,3-difluoro-4-methylphenyl)-2-(4,6-dimethyl-1,3,5-triazin-2-yl)-2,3,4,9-tetrahydro-1H-pyrido[3,4-b]indol-8-amine] registered an IC50 of 93.9 nM.

Compound `CSc1nc(N2CCc3c([nH]c4ccc(Cl)cc34)[C@@H]2c2ccc(C)c(F)c2F)nc(C(F)(F)F)n1` [Compound 389, (1S)-6-chloro-1-(2,3-difluoro-4-methylphenyl)-2-[4-(methylsulfanyl)-6-(trifluoromethyl)-1,3,5-triazin-2-yl]-2,3,4,9-tetrahydro-1H-pyrido[3,4-b]indole] yielded a half-maximal inhibitory concentration (IC50) of 0.8 nM.

The compound `N#Cc1ccc(C2c3[nH]c4cc(F)c(Cl)cc4c3CCN2c2ncc(Cl)cn2)cc1` (stereo not drawn) [Compound 59, 4-[6-chloro-2-(5-chloropyrimidin-2-yl)-7-fluoro-2,3,4,9-tetrahydro-1H-pyrido[3,4-b]indol-1-yl]benzonitrile] registered a half-maximal inhibitory concentration (IC50) of 38.7 nM. This IC50 is about 48-fold higher than that of the compound before.

Compound `Cc1ccc([C@H]2c3[nH]c4ccc(Cl)cc4c3CCN2c2ncc(F)c(C#N)n2)c(F)c1F` [Compound 385, 2-[(1S)-6-chloro-1-(2,3-difluoro-4-methylphenyl)-1,3,4,9-tetrahydro-2H-pyrido[3,4-b]indol-2-yl]-5-fluoropyrimidine-4-carbonitrile] displayed an IC50 of 2.2 nM.

As for `Fc1cc(Br)ccc1C1c2[nH]c3ccc(Cl)cc3c2CCN1c1nccc(C(F)(F)F)n1` (stereo not drawn) [Compound 268, 1-(4-bromo-2-fluorophenyl)-6-chloro-2-[4-(trifluoromethyl)pyrimidin-2-yl]-2,3,4,9-tetrahydro-1H-pyrido[3,4-b]indole], the IC50 worked out at 0.2 nM. This IC50 lies about 11-fold lower than the previous one.

In turn, `Cc1ccc([C@H]2c3[nH]c4ccc(Cl)cc4c3CCN2c2nc(N3CCN(C)CC3)nc(C(F)(F)F)n2)c(F)c1F` [Compound 477, (1S)-6-chloro-1-(2,3-difluoro-4-methylphenyl)-2-[4-(4-methylpiperazin-1-yl)-6-(trifluoromethyl)-1,3,5-triazin-2-yl]-2,3,4,9-tetrahydro-1H-pyrido[3,4-b]indole] returned an IC50 of 1.1 nM.

Compound `Cc1ccc(C2c3[nH]c4cc(F)c(Cl)cc4c3CCN2c2nc(C)cc(C#N)n2)cc1` (stereo not drawn) [Compound 151, 2-[6-chloro-7-fluoro-1-(4-methylphenyl)-1,3,4,9-tetrahydro-2H-pyrido[3,4-b]indol-2-yl]-6-methylpyrimidine-4-carbonitrile] had an IC50 of 4.5 nM. Compared with the last compound, the IC50 is about 4.1-fold higher.

The compound `Cc1ccc(C2c3[nH]c4ccc(Cl)c(F)c4c3CCN2c2ncc(F)c(C)n2)cc1` (stereo not drawn) [Compound 109, 6-chloro-5-fluoro-2-(5-fluoro-4-methylpyrimidin-2-yl)-1-(4-methylphenyl)-2,3,4,9-tetrahydro-1H-pyrido[3,4-b]indole] had an IC50 of 5.6 nM.

The compound `COC(=O)CCc1ccc(C2c3[nH]c4cc(F)c(Cl)cc4c3CCN2c2nccc(C(F)(F)F)n2)cc1` (stereo not drawn) [Compound 164, methyl 3-(4-{6-chloro-7-fluoro-2-[4-(trifluoromethyl)pyrimidin-2-yl]-2,3,4,9-tetrahydro-1H-pyrido[3,4-b]indol-1-yl}phenyl)propanoate] came in with a half-inhibitory concentration (IC50) of 4 nM.

In turn, `CN(C)c1ccc(C2c3[nH]c4cc(F)c(Cl)cc4c3CCN2c2ncc(F)cn2)cn1` (stereo not drawn) [Compound 34, 5-[6-chloro-7-fluoro-2-(5-fluoropyrimidin-2-yl)-2,3,4,9-tetrahydro-1H-pyrido[3,4-b]indol-1-yl]-N,N-dimethylpyridin-2-amine] came in with a half-inhibitory concentration (IC50) of 32.3 nM. This IC50 is about 8.1-fold higher than that of the compound before.

Take `Fc1ccc(C2c3[nH]c4ccc(F)c(F)c4c3CCN2c2ncc(F)cn2)cc1` (stereo not drawn) [Compound 83, 5,6-difluoro-1-(4-fluorophenyl)-2-(5-fluoropyrimidin-2-yl)-2,3,4,9-tetrahydro-1H-pyrido[3,4-b]indole]: the midpoint of inhibition, the IC50, lay at 259 nM.
